Laboratory results taken from patent publication US10577363B2, “Substituted piperidine compounds” (EPIZYME, INC., priority 2014, dated 2020).

molecular target: SMYD3 (Homo sapiens (Human), UniProt Q9H7B4); assay: SMYD3 biochemical assay (SPA, 3H-SAM methylation of MEKK2 protein substrate); conditions: Table 1A; IC50 values are an average of n = 1 to n = 50; read-out: SMYD3 Biochem IC50
How it was run: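 Enzyme: untagged full-length human SMYD3 from E. coli; substrate GST-tagged MEKK2 from insect cells. Buffer 25 mM Tris-Cl pH 8.0, 1 mM TCEP, 0.005% BSG/Tween 20. 30 min compound–enzyme preincubation at RT; 3H-SAM/MEKK2 start; stop with cold SAM (100 uM final); SPA readout in cpm.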

Structure (SMILES)	IC50 [µM]
O=C(N[C@H]1C[C@H]2CC[C@@H](C1)N2S(=O)(=O)c1cc2oc(=O)[nH]c2cc1Cl)c1cc(C2CC2)on1 [compound 492, N-((1R,3r,5S)-8-((5-chloro-2-oxo-2,3-dihydrobenzo[d]oxazol-6-yl)sulfonyl)-8-azabicyclo[3.2.1]octan-3-yl)-5-cyclopropylisoxazole-3-carboxamide]	> 10
CC(C)CN(C)c1cc(S(=O)(=O)N2CC[C@H](NC(=O)c3cc(C4CC4)on3)C[C@@H]2C)ccn1 [compound 510, 5-cyclopropyl-N-((2S,4S)-1-((2-(isobutyl(methyl)amino)pyridin-4-yl)sulfonyl)-2-methylpiperidin-4-yl)isoxazole-3-carboxamide]	> 10
CC(C)CN(C)c1cc(S(=O)(=O)N2CC[C@@H](NC(=O)c3cc(C4CC4)on3)C[C@@H]2C)ccn1 [compound 511, 5-cyclopropyl-N-((2S,4R)-1-((2-(isobutyl(methyl)amino)pyridin-4-yl)sulfonyl)-2-methylpiperidin-4-yl)isoxazole-3-carboxamide]	> 10
C[C@H]1C[C@@H](NC(=O)c2cc(C3CC3)on2)CCN1S(=O)(=O)c1ccc(C#N)nc1 [compound 513, N-((2S,4S)-1-((6-cyanopyridin-3-yl)sulfonyl)-2-methylpiperidin-4-yl)-5-cyclopropylisoxazole-3-carboxamide]	1.09
CCN(CC)S(=O)(=O)N1CC[C@H](NC(=O)c2cc(C3CC3)on2)C[C@@H]1C [compound 518, 5-cyclopropyl-N-((2S,4S)-1-(N,N-diethylsulfamoyl)-2-methylpiperidin-4-yl)isoxazole-3-carboxamide]	3.72

Next, values leading:

IC50 [µM]	Structure (SMILES)
0.32	C[C@@H]1C[C@@H](NC(=O)c2cc(C3CC3)on2)CCN1S(=O)(=O)c1ccc(N(C)CCN)nc1 [compound 508, N-((2R,4S)-1-((6-((2-aminoethyl)(methyl)amino)pyridin-3-yl)sulfonyl)-2-methylpiperidin-4-yl)-5-cyclopropylisoxazole-3-carboxamide]
0.00592	C[C@H]1C[C@@H](NC(=O)c2cc(C3CC3)on2)CCN1S(=O)(=O)c1ccc(NCCN)nc1 [compound 509, N-((2S,4S)-1-((6-((2-aminoethyl)amino)pyridin-3-yl)sulfonyl)-2-methylpiperidin-4-yl)-5-cyclopropylisoxazole-3-carboxamide]
0.487	C[C@@H]1C[C@@H](NC(=O)c2cc(C3CC3)on2)CCN1S(=O)(=O)c1ccnc(N(C)CCN)c1 [compound 512, N-((2R,4S)-1-((2-((2-aminoethyl)(methyl)amino)pyridin-4-yl)sulfonyl)-2-methylpiperidin-4-yl)-5-cyclopropylisoxazole-3-carboxamide]

same assay, conditions: read-out: SMYD3 Biochem IC50

IC50 [µM]	Structure (SMILES)
> 10	CC(C)CN(C)c1ccc(S(=O)(=O)N2C3CCCC2CC(NC(=O)c2cc(C4CC4)on2)C3)cn1 (stereo not drawn) [compound 514, 5-cyclopropyl-N-(9-((6-(isobutyl(methyl)amino)pyridin-3-yl)sulfonyl)-9-azabicyclo[3.3.1]nonan-3-yl)isoxazole-3-carboxamide]
0.0176	NCCNc1ccc(S(=O)(=O)N2C3CCCC2CC(NC(=O)c2cc(C4CC4)on2)C3)cn1 (stereo not drawn) [compound 515, N-(9-((6-((2-aminoethyl)amino)pyridin-3-yl)sulfonyl)-9-azabicyclo[3.3.1]nonan-3-yl)-5-cyclopropylisoxazole-3-carboxamide]
0.0742	NCCCNc1ccc(S(=O)(=O)N2C3CCCC2CC(NC(=O)c2cc(C4CC4)on2)C3)cn1 (stereo not drawn) [compound 516, N-(9-((6-((3-aminopropyl)amino)pyridin-3-yl)sulfonyl)-9-azabicyclo[3.3.1]nonan-3-yl)-5-cyclopropylisoxazole-3-carboxamide]
0.0803	CN(CCCN)c1ccc(S(=O)(=O)N2C3CCCC2CC(NC(=O)c2cc(C4CC4)on2)C3)cn1 (stereo not drawn) [compound 517, N-(9-((6-((3-aminopropyl)(methyl)amino)pyridin-3-yl)sulfonyl)-9-azabicyclo[3.3.1]nonan-3-yl)-5-cyclopropylisoxazole-3-carboxamide]

same assay, conditions: read-out: SMYD3 Biochem IC50 (μM)*

Structure (SMILES)	IC50 [µM]
N[C@H]1CC[C@@H](C(=O)N2[C@@H]3CC[C@H]2C[C@@H](NC(=O)c2cc(C4CC4)on2)C3)CC1 [compound 429, N-((1R,3R,5S)-8-((1s,4S)-4-aminocyclohexane-1-carbonyl)-8-azabicyclo[3.2.1]octan-3-yl)-5-cyclopropylisoxazole-3-carboxamide]	0.351
NCCCS(=O)(=O)N1CCC(NC(=O)c2cc(C3CC3)on2)CC12CCC2 (stereo not drawn) [compound 445, N-(5-((3-aminopropyl)sulfonyl)-5-azaspiro[3.5]nonan-8-yl)-5-cyclopropylisoxazole-3-carboxamide]	0.13
CNc1ccc(S(=O)(=O)N2CC[C@H](NC(=O)c3cc(C4CC4)on3)C[C@H]2C)cn1 [compound 447, 5-cyclopropyl-N-((2R,4S)-2-methyl-1-((6-(methylamino)pyridin-3-yl)sulfonyl)piperidin-4-yl)isoxazole-3-carboxamide]	> 10
CNc1ccc(S(=O)(=O)N2CC[C@@H](NC(=O)c3cc(C4CC4)on3)C[C@@H]2C)cn1 [compound 448, 5-cyclopropyl-N-((2S,4R)-2-methyl-1-((6-(methylamino)pyridin-3-yl)sulfonyl)piperidin-4-yl)isoxazole-3-carboxamide]	> 10
CC(C)CNc1ccc(S(=O)(=O)N2CC[C@H](NC(=O)c3cc(C4CC4)on3)C[C@H]2C)cn1 [compound 451, 5-cyclopropyl-N-((2R,4S)-1-((6-(isobutylamino)pyridin-3-yl)sulfonyl)-2-methylpiperidin-4-yl)isoxazole-3-carboxamide]	> 10
COCCNc1ccc(S(=O)(=O)N2CC[C@H](NC(=O)c3cc(C4CC4)on3)C[C@H]2C)cn1 [compound 456, 5-cyclopropyl-N-((2R,4S)-1-((6-((2-methoxyethyl)amino)pyridin-3-yl)sulfonyl)-2-methylpiperidin-4-yl)isoxazole-3-carboxamide]	> 10
COC(=O)C1CN(C(=O)[C@H]2CC[C@H](N)CC2)CC(C)C1NC(=O)c1cc(C2CC2)on1 (stereo partly drawn) [compound 468, methyl 1-((1r,4r)-4-aminocyclohexane-1-carbonyl)-4-(5-cyclopropylisoxazole-3-carboxamido)-5-methylpiperidine-3-carboxylate]	1.22
N[C@H]1CC[C@H](C(=O)N2CCC(NC(=O)c3cc(C4CC4)on3)C(c3ccccc3)C2)CC1 (stereo partly drawn) [compound 469, N-(1-((1r,4r)-4-aminocyclohexane-1-carbonyl)-3-phenylpiperidin-4-yl)-5-cyclopropylisoxazole-3-carboxamide]	6.28
NCCCS(=O)(=O)N1CCC(NC(=O)c2cc(C3CC3)on2)C(c2ccccc2)C1 (stereo not drawn) [compound 470, N-(1-((3-aminopropyl)sulfonyl)-3-phenylpiperidin-4-yl)-5-cyclopropylisoxazole-3-carboxamide]	2.76
COC(=O)C1CN(C(=O)CCCN)CC(C)C1NC(=O)c1cc(C2CC2)on1 (stereo not drawn) [compound 471, methyl 1-(4-aminobutanoyl)-4-(5-cyclopropylisoxazole-3-carboxamido)-5-methylpiperidine-3-carboxylate]	5.76
N[C@H]1CC[C@@H](C(=O)N2[C@@H]3CC[C@H]2C[C@H](NC(=O)c2cc(C4CC4)on2)C3)CC1 [compound 486, N-((1R,3S,5S)-8-((1s,4S)-4-aminocyclohexane-1-carbonyl)-8-azabicyclo[3.2.1]octan-3-yl)-5-cyclopropylisoxazole-3-carboxamide]	> 10

The next lines start with the values.

IC50 [µM]	Structure (SMILES)
> 10	CC(C)CNc1ccc(S(=O)(=O)N2CC[C@@H](NC(=O)c3cc(C4CC4)on3)C[C@@H]2C)cn1 [compound 452, 5-cyclopropyl-N-((2S,4R)-1-((6-(isobutylamino)pyridin-3-yl)sulfonyl)-2-methylpiperidin-4-yl)isoxazole-3-carboxamide]
0.305	C[C@H]1C[C@H](NC(=O)c2cc(C3CC3)on2)CCN1S(=O)(=O)c1ccc(N(C)CCN)nc1 [compound 462, N-((2S,4R)-1-((6-((2-aminoethyl)(methyl)amino)pyridin-3-yl)sulfonyl)-2-methylpiperidin-4-yl)-5-cyclopropylisoxazole-3-carboxamide]
0.121	C[C@H]1C[C@@H](NC(=O)c2cc(C3CC3)on2)CCN1S(=O)(=O)c1ccc(Cl)cn1 [compound 466, N-((2S,4S)-1-((5-chloropyridin-2-yl)sulfonyl)-2-methylpiperidin-4-yl)-5-cyclopropylisoxazole-3-carboxamide]
> 10	CC(C)CN(C)c1ncccc1S(=O)(=O)N1C2CCCC1CC(NC(=O)c1cc(C3CC3)on1)C2 (stereo not drawn) [compound 472, 5-cyclopropyl-N-(9-((2-(isobutyl(methyl)amino)pyridin-3-yl)sulfonyl)-9-azabicyclo[3.3.1]nonan-3-yl)isoxazole-3-carboxamide]
5.97	CC(C)CNc1ncccc1S(=O)(=O)N1C2CCCC1CC(NC(=O)c1cc(C3CC3)on1)C2 (stereo not drawn) [compound 473, 5-cyclopropyl-N-(9-((2-(isobutylamino)pyridin-3-yl)sulfonyl)-9-azabicyclo[3.3.1]nonan-3-yl)isoxazole-3-carboxamide]
2.74	CC(C)CNc1ncccc1S(=O)(=O)N1CC[C@H](NC(=O)c2cc(C3CC3)on2)C[C@@H]1C [compound 474, 5-cyclopropyl-N-((2S,4S)-1-((2-(isobutylamino)pyridin-3-yl)sulfonyl)-2-methylpiperidin-4-yl)isoxazole-3-carboxamide]
1.31	NCCNc1ncccc1S(=O)(=O)N1C2CCCC1CC(NC(=O)c1cc(C3CC3)on1)C2 (stereo not drawn) [compound 476, N-(9-((2-((2-aminoethyl)amino)pyridin-3-yl)sulfonyl)-9-azabicyclo[3.3.1]nonan-3-yl)-5-cyclopropylisoxazole-3-carboxamide]
